Data taken from patent US11185524B2 (Novus International, Inc., priority 2019, dated 2021).
Marks after values point to notes of the source that are not given here.

Key:
rumen microorganisms = assay: In vitro evaluation of rumen protection: degradation by rumen microorganisms in rumen fluid incubation; assay type: in vitro ADME, Holstein steers (rumen fluid donors); conditions: male, Holstein, cattle, 12 h
Method: Schematics of the HMTBa derivatives are presented below in Table. 1. Following the methodology of Patterson and Kung (J. Dairy Sci., 1988, vol. 71, pp. 3292-3301), fermentation substrate comprising casein, cellobiose, starch, pectin, and cellulose was added at a rate of 0.45 g to 250 mL fermentation flasks. HMTBa derivatives were randomly assigned to flasks and thoroughly mixed to ensure that all compounds were incorporated into the substrate. Methionine hydroxy analog (MHA), polymer encapsulated methionine (eMet) were also included as controls, as well as a blank. A total of 28 fermentation flasks were used, resulting in 4 replicates per treatment for each of the two experiments. Three cannulated Holstein steers were utilized as rumen fluid donors. Steers were housed on pasture, allowed to graze freely, and provided free choice supplement. Approximately 1000 mL of rumen fluid and a handful of rumen contents were obtained from each steer. Rumen fluid and contents were combined in pre-heated thermoses, transported to the lab, blended using a hand blender, and strained through 8 layers of cheese cloth. Combined rumen fluid was maintained under CO2 and thoroughly mixed. […] Due to variability associated with in vitro methodology, replicates were evaluated for similarity. […] Recovery of HMTBa or methionine was determined and expressed relative to initial amount of HMTBA or methionine (active) added. […]

[1] = in vivo

## CSCCC1OC(=O)C(CCSC)OC1=O (centres unmarked) [Cyclic Dimer, 3,6-bis(2-methylthio)ethyl-1,4-dioxane-2,5-dione]
Rumen microorganisms
  Free Active recovered: 439.6^c ppm
  Ruminal undegradability (estimated ruminal stability): 56.64^c

## CSCCC(O)C(=O)O (centres unmarked) [MHA, Methionine hydroxy analog]
[1]
  HMTBa in plasma: 0.324^a μg/mL
  L-methionine in plasma: 5.312^a μg/mL
  Methionine equivalents in plasma (sum of L-methionine, D-methionine, and HMTBa): 5.666^a μg/mL
